Results taken from patent US8709764B2, “Enzymatic demethylation of flavonoids” (Universiteit Gent, priority 2005, dated 2014).
Values joined by “and” are separate entries in the source; they are usually repeats but may differ in a detail not shown here. Identical values can stand only once.

Tests used:
[1] = test system: human fecal cultures; experiment: Incubation of IX with human fecal cultures (E-L; 51 fecal samples) for 3 days; type: in vitro ADME
Procedure: (§1) Fecal slurries of 20% (w/v) fresh fecal samples were prepared by homogenizing the feces with phosphate buffered saline (0.1 M, pH 7) containing 1 g/l sodiumthioglycolate as reducing agent. The particulate material was removed by centrifugation (1 min, 500×g). The supernatant is hereafter called “the culture”.
But not all cultures were able to perform this reaction. Therefore, the remaining cultures E-L (10% (v/v)) were incubated for 3 days in Brain Heart Infusion broth (with 0.5 g/l cystein-HCl) under anaerobic conditions with 25 mg/l IX (FIG. 4).
To further investigate these inter-individual differences, a total of 51 fecal samples were incubated for 3 days in Brain Heart Infusion broth (with 0.5 g/l cystein-HCl) under anaerobic conditions, containing 25 mg/l IX (FIG. 5). The results are presented as % 8-PN production relative to the incubated IX concentration and samples were ordered by increasing 8-PN production capacity.

[2] = test system: E. limosum; experiment: Selection of 8-PN producing E. limosum by repeated incubations with IX; type: in vitro ADME, Eubacterium limosum; conditions: 6 parallel incubations, 25 mg/l IX, 8 days
Procedure: Because of the capacity of E. limosum to transform IX into 8-PN, a selection procedure was performed to obtain a strain, capable to quantitatively produce 8-PN. The selection procedure consisted of 6 parallel incubations of E. limosum [cultures from single colonies] with 25 mg/l IX and incubation for 8 days. Next, the culture which produced the highest amount of 8-PN was selected and used as inoculum for the next round of 6 parallel incubations (Table 3). […] This means that, after only three rounds, a strain was selected which converted almost all IX (high mean) and was also stable (low standard deviation).

[3] = test system: human fecal cultures; experiment: Incubation of X or IX with human fecal cultures A-D for 8 days, conversion products detected by HPLC; type: in vitro ADME; conditions: fecal cultures A, B and D, 25 mg/l, 8 days
Procedure: as §1
The capacity of the cultures obtained from fecal samples A, B, C and D (further referred as cultures A-D) to degrade or transform the hop prenylflavonoid IX was tested by incubating the fecal cultures (10% (v/v)) in Brain Heart Infusion broth (with 0.5 g/l cystein-HCl) with 25 mg/l of isoxanthohumol for a period of 8 days under anaerobic conditions. Extracts of the incubations at days 0 and 8 were assayed for bioactive transformation products of IX using a Yeast Estrogenic Screen, according to De Boever et al. (2001) Env. Health Perspectives 109, 691-697, based on Routledge & Sumpter (1996) Environ. Toxicol. Chem. 15, 241-248. In brief, Saccharomyces cerevisiae, was transformed with the human estrogen receptor (ERα) gene, together with expression plasmids containing responsive elements and the lacZ reporter gene (encoding the enzyme β-galactosidase). β-galactosidase activity is quantified at 540 nm by the conversion of the chromogenic substance chlorophenol red-β-D-galactopyranoside into chlorophenol red. The bioassay response is expressed as the absorbance at 540 nm divided by the optical density at 630 nm [(A540/A630)net]. The estrogenic activity of the samples was expressed as percentage equivalence to 10 nM estradiol (E2) which elicited a 100% response in the estrogen receptor bioassay. The bioassays were performed in 96-well plates in which 10 μL of the test compounds were tested and incubated with 240 μL of the genetically modified yeast (optical density of 0.25 at 610 nm). Serial dilutions of the test compounds were made in dimethylsulfoxide, which allowed generating dose-response curves for […]. The data were fitted by a 4 parametric logistic model using the Marquardt-Levenberg algorithm (Sigmaplot 4.0, SPSS Inc., Chicago, Ill., USA) (De Boever et al. (2001) Env. Health Perspectives 109, 691-697).
To further test this transformation, cultures A-D (10% (v/v)) were incubated for 8 days in Brain Heart Infusion broth (with 0.5 g/l cystein-HCl) with either X or IX at a concentration of 25 mg/l under anaerobic conditions and conversion products were detected by HPLC (Table 1). […] However, in culture C almost 40% of 8-PN was recovered, which explains the increase in estrogenic properties of culture C.

[4] = Urinary IX and 8-PN excretion in axenic and Human Flora Associated (HFA) rats; type: in vivo, rat; conditions: 2 mg IX/kg body weight daily
Procedure: An experiment with axenic and Human Flora Associated (HFA) rats was performed to test the capacity of the selected strain of example 2 to activate methylated prenylflavonoids in vivo. A total of 12 axenic rats were used for the study. When the rats were 5 weeks old, 3 HFA rats were associated by oral gavage with a freshly voided, homogenized fecal culture which has prenylflavonoid demethylating activity. These HFA rats were designated PF+ rats.
At the same time, 3 HFA rats were associated by oral gavage with a freshly voided, homogenized fecal culture without prenylflavonoid demethylating activity. These HFA rats were designated PF− rats. The remaining rats were kept under sterile conditions. All rats were kept in separate, closed collective cages prior to the start of the experiment.
After 3 weeks of stabilization of the microbial cultures inside the rat intestine, a first experiment was started. After moving the rats to individual metabolism cages, 2 mg IX/kg body weight was daily administered to each rat for 5 days and each day 24 h-pooled urine was collected. After 3 days, the urinary IX and 8-PN excretion was quantified. […]
Herein, the 6 axenic rats were associated with the selected E. limosum strain of example 2 for 7 days by daily oral gavage with a log 9 bacterial suspension. […] On day 7, the urinary IX and 8-PN excretion was quantified.

COc1cc(O)c(CC=C(C)C)c2c1C(=O)C[C@@H](c1ccc(O)cc1)O2 [IX, 5-O-methyl-8-prenylnaringenin]
Microbial O-demethylation of IX ([1]; fecal cultures E-L, 25 mg/l IX, 3 days anaerobic): only detected in samples E, J and K
Share of tested fecal samples in which activation of IX occurred ([1]; fecal samples A-L): only a third of the tested samples
Molar % IX to 8-PN conversion, Highest ([2]; selection round I): 46.5%
Molar % IX to 8-PN conversion, Lowest ([2]; selection round I): 2% and 2.1%
Molar % IX to 8-PN conversion, Mean (stdev) ([2]; selection round I): 22.5% and 22.5 (19.3) %
Molar % IX to 8-PN conversion, Highest ([2]; selection round II): 79.4%
Molar % IX to 8-PN conversion, Lowest ([2]; selection round II): 24.3%
Molar % IX to 8-PN conversion, Mean (stdev) ([2]; selection round II): 57.9 (19.6) %
Molar % IX to 8-PN conversion, Lowest ([2]; selection round III): 82% and 82.1%
Molar % IX to 8-PN conversion, Mean (stdev) ([2]; selection round III): 90.5% and 90.5 (6.9) %
Transformation of IX [3]: recalcitrant to transformation
24 h-pooled urinary % 8-PN/(IX + 8-PN) excretion, Mean (Stdev) ([4]; PF+ HFA rats): 55.3 (9.1) %
24 h-pooled urinary % 8-PN/(IX + 8-PN) excretion, Mean (Stdev) ([4]; PF− HFA rats): 23.6 (10.4) %
